In general, pIC50 refers to −log10 of the IC50, conventionally taken in molar units.

The target in assay [1] is BACE (the beta-secretase enzyme) (Mus musculus (Mouse), UniProt P56818). Put plainly: In vivo inhibition of beta-secretase in PDAPP mice (brain Abeta 1-x). The conditions noted are these: 3 hours, young female PDAPP mice, vs vehicle. The procedure: Several animal models, including mouse, rat, guinea pig, dog, and monkey, may be used to screen for inhibition of beta-secretase activity in vivo following compound treatment Animals used in this invention were transgenic PDAPP mice as described in Games et al., Nature 373, 523-527 (1995), which have been useful to analyze in vivo inhibition of Abeta production in the presence of inhibitory compounds. Two month old PDAPP mice are administered compound formulated in N-methylpyrolidone (Pharmasolve®) in water. Three hours following the administration of compound, animals are sacrificed, and brains are removed for analysis of Abeta fragments. (See Dovey, et al., Journal of Neurochemistry, 76, 173-181 (2001); and Johnson-Wood, et al., Proc. Natl. Acad. Sci. USA, 94, 1550-1555 (1997)).
BACE (the beta-secretase enzyme), sequence (P56818 46-501): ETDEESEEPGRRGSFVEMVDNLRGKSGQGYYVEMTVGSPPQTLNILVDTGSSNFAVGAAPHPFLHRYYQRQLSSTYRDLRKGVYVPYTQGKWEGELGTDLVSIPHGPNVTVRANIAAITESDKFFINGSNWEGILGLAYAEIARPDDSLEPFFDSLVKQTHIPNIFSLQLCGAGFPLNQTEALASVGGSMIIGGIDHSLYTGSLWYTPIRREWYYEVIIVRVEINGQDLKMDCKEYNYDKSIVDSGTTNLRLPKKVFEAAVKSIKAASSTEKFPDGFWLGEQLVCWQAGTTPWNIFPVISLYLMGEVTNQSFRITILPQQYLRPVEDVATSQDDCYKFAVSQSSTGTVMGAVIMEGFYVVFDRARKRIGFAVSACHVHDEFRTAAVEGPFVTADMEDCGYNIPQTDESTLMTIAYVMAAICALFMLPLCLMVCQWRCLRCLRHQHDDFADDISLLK
For standard in vivo pharmacology studies, animals are dosed with various concentrations of compound and compared to a vehicle-treated control group dosed at the same time. At the end of the test period, animals are sacrificed and brain tissues are analyzed for the presence of Abeta peptides by specific sandwich ELISA assays. “Abeta 1-x peptide” as used herein refers to the sum of Abeta species that begin with residue 1 and end with a C-terminus greater than residue 28. This detects the majority of Abeta species and is often called “total Abeta”.
Significant and dose-responsive reduction of total Abeta after oral administration of the compound of Example 8 is consistent with a mechanism of BACE (the beta-secretase enzyme) inhibition in vivo. […] As such, compounds of the present invention are efficacious inhibitors of BACE.

Assay [2] addresses human BACE1(1-460):Fc (Homo sapiens (Human), UniProt P56817). Put plainly: BACE1 FRET assay. Type of assay: biochemical. The conditions noted are these: purified recombinant human BACE1, FRET; Mean ± SEM. The procedure: For in vitro enzymatic and cellular assays, test compounds are prepared in DMSO to make up a 10 mM stock solution.
This fusion protein of BACE1(1-460) and human Fc, named huBACE1:Fc, is constructed into the pJB02 vector. Human BACE1(1-460):Fc (huBACE1:Fc) is transiently expressed in HEK293 cells. 250 μg cDNA of each construct is mixed with Fugene 6 and added to 1 liter HEK293 cells. Four days after the transfection, conditioned media are harvested for purification. huBACE1:Fc is purified by Protein A chromatography. The enzyme is stored at −80° C. in small aliquots.
Serial dilutions of test compounds are prepared as described above. Compounds are further diluted 20× in KH2PO4 buffer. Ten μL of each dilution is added to each well on row A to H of a corresponding low protein binding black plate containing the reaction mixture (25 μL of 50 mM KH2PO4, pH 4.6, 1 mM TRITON® X-100, 1 mg/mL Bovine Serum Albumin, and 15 μM of FRET substrate) (See Yang, et. al., J. Neurochemistry, 91(6) 1249-59 (2004)). The content is mixed well on a plate shaker for 10 minutes. […] The RFU of the mixture at time 0 is recorded at excitation wavelength 355 nm and emission wavelength 460 nm, after brief mixing on a plate shaker. […] The RFU at the end of incubation is recorded with the same excitation and emission settings used at time 0. […]

The target of assay [3] is native, endogenous murine BACE1 (Mus musculus (Mouse), UniProt P56818). Put plainly: PDAPP primary neuronal assay (Abeta ELISA). The conditions noted are these: primary cortical neurons from PDAPP embryos. In kind it is cell-based. As for the experimental part: For in vitro enzymatic and cellular assays, test compounds are prepared in DMSO to make up a 10 mM stock solution. […] A confirmatory whole cell assay is also run in primary neuronal cultures generated from PDAPP transgenic embryonic mice. […] After 2 days in vitro, culture media is replaced with serum free DMEM/F12 (1:1) containing B27 supplement and 2 μM (final) of Ara-C (Sigma, C1768). At day 5 in vitro, neurons are incubated at 37° C. for 24 h in the presence/absence of inhibitors (diluted in DMSO) at the desired concentration. At the end of the incubation, conditioned media are analyzed for evidence of beta-secretase activity, for example, by analysis of Abeta peptides. […] Both Abeta 1-40 and Abeta 1-42 ELISAs use biotinylated 3D6 as the reporting antibody. The concentration of Abeta released in the conditioned media following the compound treatment corresponds to the activity of BACE1 under such conditions.
native, endogenous murine BACE1, sequence (P56818 46-501): as above
Background: In an ELISA, binding on a coated surface is turned into a signal by an enzyme label.

Assay [4] concerns the target native endogenous human BACE1 (Homo sapiens (Human), UniProt P56817). Put plainly: HEK293Swe whole cell assay (Abeta ELISA). Type of assay: cell-based. The conditions noted are these: HEK293/APP751sw cells. The procedure:
For in vitro enzymatic and cellular assays, test compounds are prepared in DMSO to make up a 10 mM stock solution. The stock solution is serially diluted in DMSO to obtain a ten-point dilution curve with final compound concentrations ranging from […] to 1 nM in a 96-well round-bottom plate before conducting the in vitro enzymatic and whole cell assays. […]
Cells (HEK293/APP751sw at 3.5×10^4 cells/well, containing 200 μL culture media, DMEM containing 10% FBS) are incubated at 37° C. for 4 to 24 h in the presence/absence of inhibitors (diluted in DMSO) at the desired concentration. At the end of the incubation, conditioned media are analyzed for evidence of beta-secretase activity, for example, by analysis of Abeta peptides. Total Abeta peptides (Abeta 1-x) are measured by a sandwich ELISA, using monoclonal 266 as a capture antibody and biotinylated 3D6 as reporting antibody. Alternatively, Abeta 1-40 and Abeta 1-42 peptides are measured by a sandwich ELISA, using monoclonal 2G3 as a capture antibody for Abeta 1-40, and monoclonal 21F12 as a capture antibody for Abeta 1-42. […]

The mark [5] stands for this setting: Abeta 1-40, read-out: PDAPP Neuron A-beta (1-40) ELISA IC50.
Setting [6] is: Abeta 1-42, read-out: PDAPP Neuron A-beta (1-42) ELISA IC50.

pIC50: −log10 of the molar value. Where a name gives a salt, the structure may show the parent alone. Read-outs that look alike come from different tables or passages of the source.

native endogenous human BACE1, sequence (P56817 46-501): as the sequence (P56818 46-501) above, with S6P, I162V, I165L, T180S, A182V, V340I, A393L, H443Q counted along it
human BACE1(1-460):Fc, sequence (P56817 22-460): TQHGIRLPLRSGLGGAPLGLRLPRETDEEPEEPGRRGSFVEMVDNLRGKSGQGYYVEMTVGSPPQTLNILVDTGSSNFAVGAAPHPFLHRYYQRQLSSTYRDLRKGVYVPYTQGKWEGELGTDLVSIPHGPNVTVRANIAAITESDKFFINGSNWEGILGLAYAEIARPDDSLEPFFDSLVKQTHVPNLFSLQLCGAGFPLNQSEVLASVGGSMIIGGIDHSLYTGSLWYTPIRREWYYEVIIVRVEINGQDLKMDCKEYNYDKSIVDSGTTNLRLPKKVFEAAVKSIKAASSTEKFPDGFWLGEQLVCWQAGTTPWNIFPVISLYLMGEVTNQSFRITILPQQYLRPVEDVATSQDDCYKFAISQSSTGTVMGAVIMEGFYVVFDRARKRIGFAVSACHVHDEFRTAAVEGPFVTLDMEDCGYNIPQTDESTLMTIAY

Take `CC(C)(O)c1nc(N2C[C@H]3CSC(N)=N[C@@]3(c3cnccn3)C2)ncc1F.Cl` [Example 8, 2-[2-[(4aR,7aR)-2-Amino-7a-pyrazin-2-yl-4,4a,5,7-tetrahydropyrrolo[3,4-d][1,3]thiazin-6-yl]-5-fluoro-pyrimidin-4-yl]propan-2-ol hydrochloride]: the “Abeta 1-x peptide levels reduced in brain cortex” value was “approximately 23%” in assay [1] (10 mg/kg oral dose) and approximately 53% in assay [1] (30 mg/kg oral dose). Also, the “Abeta 1-x peptide levels reduced in brain hippocampus” value in assay [1] (10 mg/kg oral dose) is recorded as “approximately 19%”; in assay [1] (30 mg/kg oral dose), approximately 46%. Moreover, the pIC50 in assay [2] is 6.98; in assay [3] (setting [5]), 6.34; in assay [3] (setting [6]), 6.39; in assay [4] (Abeta 1-40, read-out: HEK 293 Swe A-beta (1-40) ELISA IC50) it was 6.62; in assay [4] (Abeta 1-42, read-out: HEK 293 Swe A-beta (1-42) ELISA IC50) it was 6.40.
Turning to `CC(C)(O)c1nc(N2C[C@H]3CSC(N)=N[C@@]3(c3ccc(F)cn3)C2)ncc1F` [Example 12, 2-[2-[(4aR,7aR)-2-Amino-7a-(5-fluoro-2-pyridyl)-4,4a,5,7-tetrahydropyrrolo[3,4-d][1,3]thiazin-6-yl]-5-fluoro-pyrimidin-4-yl]propan-2-ol hydrochloride], the figures for the pIC50 in assay [3] (setting [5]) and in assay [3] (setting [6]) were 6.96 and 7.08, respectively.
With `CC(C)(O)c1nc(N2C[C@H]3CSC(N)=N[C@@]3(c3cccnc3)C2)ncc1F` [Example 15, 2-[2-[(4aR,7aS)-2-Amino-7a-(3-pyridyl)-4,4a,5,7-tetrahydropyrrolo[3,4-d][1,3]thiazin-6-yl]-5-fluoro-pyrimidin-4-yl]propan-2-ol hydrochloride], the pIC50 was 7.03 in assay [2], 7.01 in assay [3] (setting [5]) and 7.10 in assay [3] (setting [6]).

Values taken from patent publication US9328124B2, “BACE inhibitors” (Eli Lilly and Company, priority 2012, dated 2016).
